Results taken from patent publication US20230233569A1 (Revolution Medicines, Inc., priority 2020, published 2023).

Columns and labels:
Type in all cases: biochemical
KRAS G12V [1] = target: T1, KRAS G12V (Homo sapiens, UniProt P01116+P62937, G12V); assay: Disruption of BRAF RBD interaction with Ras (FRET / MOA assay, with Cyclophilin A); details: KRAS G12V; read-out: KRAS G12V FRET data IC50
Summary of the method: (§1)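 TR-FRET: nucleotide-loaded K-Ras mutant or WT with Cyclophilin A and BRAF RBD, compound 10-point 3-fold from 30 μM final, 3 h at 25° C, then anti-His Eu (10 nM) and anti-GST APC (50 nM) for 1.5 h. Decreased FRET ratio versus DMSO gives IC50.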

KRAS Q61H = KRAS Q61H (Homo sapiens, UniProt P01116+P62937, Q61H); assay: as above; details: KRAS Q61H; read-out: KRAS Q61H FRET data IC50
Sequence of KRAS Q61H (P01116 1-169 isoform P01116-2 Q61H limits assumed): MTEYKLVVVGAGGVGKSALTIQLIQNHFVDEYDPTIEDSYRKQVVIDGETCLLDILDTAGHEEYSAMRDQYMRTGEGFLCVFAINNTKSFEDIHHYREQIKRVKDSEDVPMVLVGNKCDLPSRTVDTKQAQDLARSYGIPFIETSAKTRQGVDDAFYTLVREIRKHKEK
Sequence of KRAS Q61H (P62937 whole entry, the tested form may be a part): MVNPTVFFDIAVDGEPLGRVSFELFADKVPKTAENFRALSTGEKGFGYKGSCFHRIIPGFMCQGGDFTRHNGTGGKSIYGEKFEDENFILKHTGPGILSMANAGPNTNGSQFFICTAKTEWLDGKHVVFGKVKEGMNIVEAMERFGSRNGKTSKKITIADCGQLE
Source text: (§2) Disruption of B-Raf Ras-Binding Domain (BRAF^RBD) Interaction with K-Ras by Compounds of the Invention (Also Called a FRET Assay or an MOA Assay)
(§3) Note—The following protocol describes a procedure for monitoring disruption of K-Ras G12C (GMP-PNP) binding to BRAF^RBD by a compound of the invention. This protocol may also be executed substituting other Ras proteins or nucleotides.
(§4) The purpose of this biochemical assay was to measure the ability of test compounds to facilitate ternary complex formation between a nucleotide-loaded K-Ras isoform and Cyclophilin A; the resulting ternary complex disrupts binding to a BRAF^RBD construct, inhibiting K-Ras signaling through a RAF effector. Data is reported as IC50 values.
(§5) In assay buffer containing 25 mM HEPES pH 7.3, 0.002% Tween20, 0.1% BSA, 100 mM NaCl and 5 mM MgCl2, tagless Cyclophilin A, His6-K-Ras-GMPPNP, and GST-BRAF^RBD were combined in a 384-well assay plate at final concentrations of 25 μM, 12.5 nM and 50 nM, respectively. Compound was present in plate wells as a 10-point 3-fold dilution series starting at a final concentration of 30 μM. After incubation at 25° C. for 3 hours, a mixture of Anti-His Eu-W1024 and anti-GST allophycocyanin was then added to assay sample wells at final concentrations of 10 nM and 50 nM, respectively, and the reaction incubated for an additional 1.5 hours. […] Compounds that facilitate disruption of a K-Ras:RAF complex were identified as those eliciting a decrease in the TR-FRET ratio relative to DMSO control wells.
as §4, with “BRAF^RBDD” for “BRAF^RBD”

NRAS Q61K = NRAS Q61K (Homo sapiens, UniProt P01111+P62937, Q61K); assay: as above; details: NRAS Q61K; read-out: NRAS Q61K FRET data IC50
Sequence of NRAS Q61K (P01111 whole entry Q61K): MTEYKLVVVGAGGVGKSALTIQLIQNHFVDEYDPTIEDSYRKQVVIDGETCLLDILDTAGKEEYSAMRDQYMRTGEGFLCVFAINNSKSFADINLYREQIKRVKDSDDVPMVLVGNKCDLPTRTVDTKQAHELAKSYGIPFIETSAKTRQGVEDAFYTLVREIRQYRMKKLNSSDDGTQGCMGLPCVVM
Sequence of NRAS Q61K (P62937 whole entry): as the sequence (P62937 whole entry, the tested form may be a part) above
Source text: as §2, §3, §4, §5
as §4, with “BRAF^RBDD” for “BRAF^RBD”

KRAS G13C [2] = target: T2, KRAS G13C (Homo sapiens, UniProt P01116+P62937, G13C); assay: as above; details: KRAS G13C; read-out: KRAS G13C FRET data IC50
Summary of the method: as §1
Target sequence in this assay (P01116 1-169 isoform P01116-2 G13C): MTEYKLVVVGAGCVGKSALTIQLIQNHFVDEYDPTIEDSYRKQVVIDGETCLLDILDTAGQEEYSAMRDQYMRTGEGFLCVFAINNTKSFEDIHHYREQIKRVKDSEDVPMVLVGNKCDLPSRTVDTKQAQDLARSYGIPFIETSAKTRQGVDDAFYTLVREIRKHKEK
Target sequence in this assay (P62937 whole entry): as the sequence (P62937 whole entry, the tested form may be a part) above

NRAS Q61R = NRAS Q61R (Homo sapiens, UniProt P01111+P62937, Q61R); assay: as above; details: NRAS Q61R; read-out: NRAS Q61R FRET data IC50
Sequence of NRAS Q61R (P01111 whole entry Q61R): as the sequence (P01111 whole entry Q61K) above, with K61R counted along it
Sequence of NRAS Q61R (P62937 whole entry): as the sequence (P62937 whole entry, the tested form may be a part) above
Source text: as §2, §3, §4, §5
as §4, with “BRAF^RBDD” for “BRAF^RBD”

KRAS G13D [3] = target: T3, KRAS G13D (Homo sapiens, UniProt P01116+P62937, G13D); assay: as above; details: KRAS G13D; read-out: KRAS G13D FRET data IC50
T3 sequence (P01116 1-169 isoform P01116-2 G13D limits assumed): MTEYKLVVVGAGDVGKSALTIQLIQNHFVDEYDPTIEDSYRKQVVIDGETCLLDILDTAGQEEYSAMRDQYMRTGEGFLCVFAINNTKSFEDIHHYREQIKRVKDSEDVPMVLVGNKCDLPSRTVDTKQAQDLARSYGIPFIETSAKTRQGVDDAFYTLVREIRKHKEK
T3 sequence (P62937 whole entry): as the sequence (P62937 whole entry, the tested form may be a part) above
Summary of the method: as §1

KRAS G12C [4] = target: T4, KRAS G12C (Homo sapiens, UniProt P01116+P62937, G12C); assay: as above; details: KRAS G12C; read-out: KRAS G12C FRET data IC50
Summary of the method: as §1
Target sequence in this assay (P01116 1-169 isoform P01116-2 G12C): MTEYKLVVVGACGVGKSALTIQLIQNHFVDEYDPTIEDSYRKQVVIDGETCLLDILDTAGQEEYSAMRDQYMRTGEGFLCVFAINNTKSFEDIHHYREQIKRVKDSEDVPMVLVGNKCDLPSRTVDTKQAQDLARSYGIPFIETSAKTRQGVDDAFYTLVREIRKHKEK
Target sequence in this assay (P62937 whole entry): as the sequence (P62937 whole entry, the tested form may be a part) above

NRAS G12C [5] = target: T5, NRAS G12C (Homo sapiens, UniProt P01111+P62937, G12C); assay: as above; details: NRAS G12C; read-out: NRAS G12C FRET data IC50
T5 sequence (P01111 whole entry G12C): as the sequence (P01111 whole entry Q61K) above, with G12C, K61Q counted along it
T5 sequence (P62937 whole entry): as the sequence (P62937 whole entry, the tested form may be a part) above

KRAS G12C [6] = target: T4, KRAS G12C; assay: Ras-Raf disruption / FRET / MOA assay (BRAF RBD); details: Ras-Raf disruption, with Cyclophilin A; read-out: KRAS G12C FRET data IC50
Summary of the method: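 His6-K-Ras G12C-GMPPNP (12.5 nM), GST-BRAF RBD (50 nM) and tagless Cyclophilin A (25 μM) incubated 3 h at 25 °C with compound (10-point 3-fold series from 30 μM), pH 7.3 HEPES buffer. Anti-His Eu/anti-GST APC added for 1.5 h; decreased TR-FRET ratio vs DMSO gives IC50.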
Target sequence in this assay (P01116 1-169 isoform P01116-2 G12C limits assumed): as the sequence (P01116 1-169 isoform P01116-2 G12C) above
Target sequence in this assay (P62937 whole entry): as the sequence (P62937 whole entry, the tested form may be a part) above

KRAS G13D [7] = target: T3, KRAS G13D; assay: Ras-Raf disruption / FRET / MOA assay (BRAF RBD); details: Ras-Raf disruption, with Cyclophilin A; read-out: KRAS G13D FRET data IC50
Summary of the method: (§6)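 TR-FRET in 25 mM HEPES pH 7.3, 100 mM NaCl, 5 mM MgCl2, 0.1% BSA, 0.002% Tween20 with 25 μM Cyclophilin A, 12.5 nM His6-Ras-GMPPNP, 50 nM GST-BRAF RBD; compound 10-point 3-fold series from 30 μM. After 3 h at 25 °C, Eu anti-His/APC anti-GST added for 1.5 h; IC50 from ratio decrease versus DMSO.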

KRAS G12S = KRAS G12S (Homo sapiens, UniProt P01116+P62937, G12S); assay: Ras-Raf disruption / FRET / MOA assay (BRAF RBD); details: Ras-Raf disruption, with Cyclophilin A; read-out: KRAS G12S FRET data IC50
Sequence of KRAS G12S (P01116 1-169 isoform P01116-2 G12S limits assumed): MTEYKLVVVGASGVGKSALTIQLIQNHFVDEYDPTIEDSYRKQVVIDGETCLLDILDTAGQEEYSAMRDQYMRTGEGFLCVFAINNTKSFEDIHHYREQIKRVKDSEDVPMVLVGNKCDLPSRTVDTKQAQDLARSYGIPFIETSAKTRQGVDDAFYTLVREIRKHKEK
Sequence of KRAS G12S (P62937 whole entry): as the sequence (P62937 whole entry, the tested form may be a part) above
Summary of the method: as §6

KRAS G12V [8] = target: T1, KRAS G12V; assay: Ras-Raf disruption / FRET / MOA assay (BRAF RBD); details: Ras-Raf disruption, with Cyclophilin A; read-out: KRAS G12V FRET data IC50
Summary of the method: as §6

KRAS WT = KRAS WT (Homo sapiens, UniProt P01116+P62937); assay: Ras-Raf disruption / FRET / MOA assay (BRAF RBD); details: Ras-Raf disruption, with Cyclophilin A; read-out: KRAS WT FRET data IC50
Sequence of KRAS WT (P01116 1-169 isoform P01116-2 limits assumed): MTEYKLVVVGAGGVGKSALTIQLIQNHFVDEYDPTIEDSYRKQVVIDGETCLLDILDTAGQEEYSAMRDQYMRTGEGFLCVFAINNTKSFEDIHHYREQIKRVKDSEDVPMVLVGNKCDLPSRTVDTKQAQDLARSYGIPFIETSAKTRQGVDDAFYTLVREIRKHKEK
Sequence of KRAS WT (P62937 whole entry): as the sequence (P62937 whole entry, the tested form may be a part) above
Summary of the method: as §6

KRAS G12D = KRAS G12D (Homo sapiens, UniProt P01116+P62937, G12D); assay: Ras-Raf disruption / FRET / MOA assay (BRAF RBD); details: Ras-Raf disruption, with Cyclophilin A; read-out: KRAS G12D FRET data IC50
Sequence of KRAS G12D (P01116 1-169 isoform P01116-2 G12D limits assumed): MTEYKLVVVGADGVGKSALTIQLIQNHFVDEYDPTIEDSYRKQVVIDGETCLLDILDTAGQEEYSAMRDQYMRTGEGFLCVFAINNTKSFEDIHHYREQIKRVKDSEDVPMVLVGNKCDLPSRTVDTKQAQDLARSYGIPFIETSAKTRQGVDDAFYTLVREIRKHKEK
Sequence of KRAS G12D (P62937 whole entry): as the sequence (P62937 whole entry, the tested form may be a part) above
Summary of the method: as §6

NRAS G12C [9] = target: T5, NRAS G12C; assay: Ras-Raf disruption / FRET / MOA assay (BRAF RBD); details: NRAS G12C; read-out: NRAS G12C FRET data IC50
Summary of the method: as §6

KRAS G13C [10] = target: T2, KRAS G13C; assay: Ras-Raf disruption / FRET / MOA assay (BRAF RBD); details: Ras-Raf disruption, with Cyclophilin A; read-out: KRAS G13C FRET data IC50
Summary of the method: as §6
Target sequence in this assay (P01116 1-169 isoform P01116-2 G13C limits assumed): as the sequence (P01116 1-169 isoform P01116-2 G13C) above
Target sequence in this assay (P62937 whole entry): as the sequence (P62937 whole entry, the tested form may be a part) above

T1 sequence (P01116 1-169 isoform P01116-2 G12V limits assumed): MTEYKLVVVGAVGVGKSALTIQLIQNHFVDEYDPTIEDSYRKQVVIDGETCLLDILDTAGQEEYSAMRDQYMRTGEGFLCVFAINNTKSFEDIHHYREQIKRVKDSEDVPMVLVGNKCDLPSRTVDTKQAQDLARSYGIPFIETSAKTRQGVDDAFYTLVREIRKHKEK
T1 sequence (P62937 whole entry): as the sequence (P62937 whole entry, the tested form may be a part) above

Compound | IC50 (KRAS Q61H) | IC50 (KRAS G12C [6]) | IC50 (KRAS G13D [7]) | IC50 (KRAS G12S) | IC50 (KRAS G12V [8]) | IC50 (KRAS WT) | IC50 (KRAS G12D) | IC50 (NRAS G12C [9]) | IC50 (KRAS G13C [10]) | also measured
CCn1c(-c2cccnc2[C@H](C)OC)c2c3cc(ccc31)-c1csc(n1)C[C@H](NC(=O)[C@H](C(C)C)N(C)C(=O)[C@H]1[C@@H]3CNC[C@@H]31)C(=O)N1CCC[C@H](N1)C(=O)OCC(C)(C)C2 (atropisomer, axis not shown) [Example A448] | 1000 to 10000 nM |  |  |  |  |  |  |  |  | IC50 (KRAS G12V [1]): > 10000 nM
CCn1c(-c2cccnc2[C@H](C)OC)c2c3nc(ccc31)-c1csc(n1)C[C@H](NC(=O)[C@H](C(C)C)N(C)C(=O)N1CC(OC)C1)C(=O)N1CCC[C@H](N1)C(=O)OCC(C)(C)C2 (atropisomer, axis not shown) [Example A613] | 1000 to 10000 nM |  |  |  |  |  |  |  |  | 
CCn1c(-c2cccnc2[C@H](C)OC)c2c3cc(ccc31)-c1csc(n1)C[C@H](NC(=O)[C@H](C(C)C)N(C)C(=O)N1CC3(CN(C)C3)C1)C(=O)N1CCC[C@H](N1)C(=O)OCC(C)(C)C2 (atropisomer, axis not shown) [Example A268] | 10 to 100 nM |  |  |  |  |  |  |  |  | IC50 (NRAS Q61K): 10 to 100 nM
C=CC(=O)N1CC[C@H](C(=O)N(C)[C@H](C(=O)N[C@H]2Cc3cc(O)cc(c3)-c3ccc4c(c3)c(c(-c3cccnc3)n4C(C)(C)C#N)CC(C)(C)COC(=O)[C@@H]3CCCN(N3)C2=O)C(C)C)C1 [Example A074] | 100 to 1000 nM |  |  |  |  |  |  |  |  | IC50 (KRAS G13C [2]): 100 to 1000 nM; IC50 (NRAS Q61R): 1000 to 10000 nM
CCn1c(-c2cccnc2[C@H](C)OC)c2c3cc(ccc31)-c1cc(O)cc(c1)C[C@H](NC(=O)[C@H](C(C)C)N(C)C(=O)[C@@H]1OCC[C@@H]1c1ccccc1)C(=O)N1CCC[C@H](N1)C(=O)OCC(C)(C)C2 [Example A415] | < 10 nM |  |  |  |  |  |  |  |  | 
CCn1c(-c2cccnc2[C@H](C)OC)c2c3cc(ccc31)-c1cccc(c1)C[C@H](NC(=O)[C@H](C(C)C)N(C)C(=O)N1CCC13CN(C(=O)C#CC(C)(C)N(C)C)C3)C(=O)N1CCC[C@H](N1)C(=O)OCC(C)(C)C2 (atropisomer, axis not shown) [Example A717] | 100 to 1000 nM |  |  |  |  |  |  |  |  | IC50 (KRAS G13D [3]): 1000 to 10000 nM; IC50 (KRAS G12C [4]): 100 to 1000 nM; IC50 (NRAS G12C [5]): 100 to 1000 nM
CCn1c(-c2cccnc2[C@H](C)OC)c2c3cc(ccc31)-c1cc(O)cc(c1)C[C@H](NC(=O)[C@H](C(C)C)N1CC[C@@]3(CCN(C(=O)[C@H]4CN4)C3)C1=O)C(=O)N1CCC[C@H](N1)C(=O)OCC(C)(C)C2 [Example 149] |  | < 10 nM | 10 to 100 nM | 10 to 100 nM | 10 to 100 nM | 10 to 100 nM | 100 to 1000 nM | < 10 nM | 10 to 100 nM | 
CCn1c(-c2cccnc2[C@H](C)OC)c2c3cc(ccc31)-c1cc(O)cc(c1)C[C@H](NC(=O)[C@H](C(C)C)N(C)C(=O)C1CC3(C1)CN(C(=O)[C@@H]1CN1)C3)C(=O)N1CCC[C@H](N1)C(=O)OCC(C)(C)C2 [Example 180] |  | 100 to 1000 nM | 100 to 1000 nM | 100 to 1000 nM | 100 to 1000 nM | 100 to 1000 nM | 1000 to 10000 nM | 100 to 1000 nM | 10 to 100 nM | 
CCn1c(-c2cccnc2[C@H](C)OC)c2c3cc(ccc31)-c1cc(O)cc(c1)C[C@H](NC(=O)[C@H](C(C)C)N(C)C(=O)N1CCN(C(=O)[C@H]3CN3)CC1=O)C(=O)N1CCC[C@H](N1)C(=O)OCC(C)(C)C2 (atropisomer, axis not shown) [Example 183] |  | < 10 nM | 100 to 1000 nM | 100 to 1000 nM | 100 to 1000 nM | 10 to 100 nM | 1000 to 10000 nM | 10 to 100 nM | 10 to 100 nM | 
CCn1c(-c2cccnc2[C@H](C)OC)c2c3cc(ccc31)-c1cccc(c1)C[C@H](NC(=O)[C@H](C(C)C)N(C)C(=O)[C@H]1C[C@H](N=C=Nc3c(C)cccc3C)C1)C(=O)N1CCC[C@H](N1)C(=O)OCC(C)(C)C2 [Example 126] |  | 100 to 1000 nM | 1000 to 10000 nM | 100 to 1000 nM | 1000 to 10000 nM | 1000 to 10000 nM | 1000 to 10000 nM | 100 to 1000 nM | 100 to 1000 nM | 
CCn1c(-c2cccnc2[C@H](C)OC)c2c3cc(ccc31)-c1cc(O)cc(c1)C[C@H](NC(=O)[C@H](C(C)C)N(C)C(=O)c1ccc(NC(=O)[C@H]3CN3)cn1)C(=O)N1CCC[C@H](N1)C(=O)OCC(C)(C)C2 [Example 127] |  | 100 to 1000 nM | 100 to 1000 nM | 10 to 100 nM | 100 to 1000 nM | 100 to 1000 nM | 100 to 1000 nM | 100 to 1000 nM | 10 to 100 nM | 
CCn1c(-c2cccnc2[C@H](C)OC)c2c3cc(ccc31)-c1cc(O)cc(c1)C[C@H](NC(=O)[C@H](C(C)C)N(C)C(=O)[C@@H]1CN1)C(=O)N1CCC[C@H](N1)C(=O)OCC(C)(C)C2 [Example 100] |  | 10 to 100 nM | 10 to 100 nM | 10 to 100 nM | 10 to 100 nM | 10 to 100 nM | 100 to 1000 nM | 10 to 100 nM | 10 to 100 nM | 
